Source: patent US20140023611A1 (priority 2010, published 2014)

Biological target: T1, rat NaP2b (SLC34A2) (Rattus norvegicus, UniProt Q9JJ09)
T1 construct: host or cells: HEK293
T1 sequence (Q9JJ09 1-695): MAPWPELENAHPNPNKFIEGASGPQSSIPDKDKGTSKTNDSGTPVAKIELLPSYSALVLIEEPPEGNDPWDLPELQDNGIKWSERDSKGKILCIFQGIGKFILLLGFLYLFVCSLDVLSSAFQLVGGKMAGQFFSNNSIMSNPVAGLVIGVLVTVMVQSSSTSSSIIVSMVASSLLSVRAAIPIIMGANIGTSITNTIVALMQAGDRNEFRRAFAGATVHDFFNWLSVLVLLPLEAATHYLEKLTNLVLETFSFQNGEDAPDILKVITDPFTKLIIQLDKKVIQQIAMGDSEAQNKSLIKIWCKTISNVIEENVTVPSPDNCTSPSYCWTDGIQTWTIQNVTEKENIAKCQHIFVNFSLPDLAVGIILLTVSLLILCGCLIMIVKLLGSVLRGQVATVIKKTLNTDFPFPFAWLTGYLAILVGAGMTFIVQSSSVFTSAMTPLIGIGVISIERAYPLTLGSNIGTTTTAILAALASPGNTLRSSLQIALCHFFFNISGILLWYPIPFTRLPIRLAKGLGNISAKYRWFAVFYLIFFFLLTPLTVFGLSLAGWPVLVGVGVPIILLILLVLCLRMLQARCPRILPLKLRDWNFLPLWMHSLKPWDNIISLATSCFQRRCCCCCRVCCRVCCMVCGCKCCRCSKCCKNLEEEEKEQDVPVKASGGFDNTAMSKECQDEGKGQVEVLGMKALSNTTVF
Assay: Inhibition of NaP2b-mediated Pi (33P) uptake in transfected HEK293 cells, rat NaP2b
Format: cell-based
Conditions: 33P Pi uptake, 0.1 mM phosphate, value given as pIC50 range
Procedure: HEK293 cells were obtained from the American Type Culture collection and propagated per their instructions. […] The sequence of the human protein was mutated to insert a threonine after residue 37, and to introduce a N39D mutation.
Cells were seeded into 96-well plates at 25,000 cells/well and cultured overnight. Lipofectamine 2000 (Invitrogen) was used to introduce the NaP2b cDNA, and the cells were allowed to approach confluence during a second overnight incubation. […] Each compound was tested at twelve concentrations ranging from 0.1 nM to 30 uM. Assays were run in duplicate.
Cells were lysed by addition of 20 μL 0.1% Tween 80 followed by 100 μL scintillation fluid, and counted using a TopCount (Perkin Elmer).
pIC50 (the negative log of the IC50) values of the test compounds were calculated using GraphPad Prism.

Row | Structure (SMILES) | IC50
1 | COCCNC(=O)[C@@H]1CCCN(C(=O)c2cccc(C(=O)Nc3ccc(N4CCCCC4)cc3-c3cc(C(=O)NCc4cccc(C(F)(F)F)c4)ccn3)c2)C1 [Example 4.15, (R)-2-(2-(3-(3-((2-Methoxyethyl)carbamoyl)piperidine-1-carbonyl)benzamido)-5-(piperidin-1-yl)phenyl)-N-(3-(trifluoromethyl)benzyl)isonicotinamide] | 1 to 7.94 µM
2 | O=C(CCSCc1cccc(C(=O)Nc2ccc(N3CCCCC3)cc2-c2cc(C(=O)NCc3cccc(C(F)(F)F)c3)ccn2)c1)NCCN1CCOCC1 [Example 4.16, 2-(2-(3-(((3-((2-Morpholinoethyl)amino)-3-oxopropyl)thio)methyl)benzamido)-5-(piperidin-1-yl)phenyl)-N-(3-(trifluoromethyl)benzyl)isonicotinamide] | 10 to 31.6 µM
3 | COCCNC(=O)CCSCc1cccc(C(=O)Nc2ccc(N3CCCCC3)cc2-c2cc(C(=O)NCc3cccc(C(F)(F)F)c3)ccn2)c1 [Example 4.17, 2-(2-(3-(((3-((2-Methoxyethyl)amino)-3-oxopropyl)thio)methyl)benzamido)-5-(piperidin-1-yl)phenyl)-N-(3-(trifluoromethyl)benzyl)isonicotinamide] | 10 to 31.6 µM
4 | O=C(O)CNC(=O)CCSCc1cccc(C(=O)Nc2ccc(N3CCCCC3)cc2-c2cc(C(=O)NCc3cccc(C(F)(F)F)c3)ccn2)c1 [Example 4.18, 2-(3-((3-((4-(Piperidin-1-yl)-2-(4-((3-(trifluoromethyl)benzyl)carbamoyl)pyridin-2-yl)phenyl)carbamoyl)benzyl)thio)propanamido)acetic acid] | 10 to 31.6 µM
5 | COCCN(C)CCN(C)C(=O)c1cccc(C(=O)Nc2ccc(N3CCCCC3)cc2-c2cc(C(=O)NCc3cccc(C(F)(F)F)c3)ccn2)c1 [Example 4.20.2, N1-(2-((2-Methoxyethyl)(methyl)amino)ethyl)-N1-methyl-N3-(4-(piperidin-1-yl)-2-(4-((3-(trifluoromethyl)benzyl)carbamoyl)pyridin-2-yl)phenyl)isophthalamide] | 1 to 7.94 µM
6 | CN(CCO)CCN(C)C(=O)c1cccc(C(=O)Nc2ccc(N3CCCCC3)cc2-c2cc(C(=O)NCc3cccc(C(F)(F)F)c3)ccn2)c1 [Example 4.21, N1-(2-((2-Hydroxyethyl)(methyl)amino)ethyl)-N1-methyl-N3-(4-(piperidin-1-yl)-2-(4-((3-(trifluoromethyl)benzyl)carbamoyl)pyridin-2-yl)phenyl)isophthalamide] | 1 to 7.94 µM
7 | CN(CCNC(=O)OC(C)(C)C)C(=O)c1cccc(C(=O)Nc2ccc(N3CCCCC3)cc2-c2cc(C(=O)NCc3cccc(C(F)(F)F)c3)ccn2)c1 [Example 4.22] | 10 to 31.6 µM
8 | O=C(NCc1cccc(C(F)(F)F)c1)c1ccnc(-c2cc(N3CCCCC3)ccc2NC(=O)c2cccc(C(=O)N3CCC(N4CCOCC4)CC3)c2)c1 [Example 4.23] | 10 to 31.6 µM
9 | CN(Cc1ncc[nH]1)C(=O)c1cccc(C(=O)Nc2ccc(N3CCCCC3)cc2-c2cc(C(=O)NCc3cccc(C(F)(F)F)c3)ccn2)c1 [Example 4.24] | 1 to 7.94 µM
10 | CN(Cc1nccn1C)C(=O)c1cccc(C(=O)Nc2ccc(N3CCCCC3)cc2-c2cc(C(=O)NCc3cccc(C(F)(F)F)c3)ccn2)c1 [Example 4.25] | 1 to 7.94 µM
11 | CN(Cc1cccnc1)C(=O)c1cccc(C(=O)Nc2ccc(N3CCCCC3)cc2-c2cc(C(=O)NCc3cccc(C(F)(F)F)c3)ccn2)c1 [Example 4.27] | 1 to 7.94 µM
12 | CN(CCn1ccnc1)C(=O)c1cccc(C(=O)Nc2ccc(N3CCCCC3)cc2-c2cc(C(=O)NCc3cccc(C(F)(F)F)c3)ccn2)c1 [Example 4.28] | 1 to 7.94 µM
13 | O=C(NCc1cccc(C(F)(F)F)c1)c1ccnc(-c2cc(N3CCCCC3)ccc2NC(=O)c2cccc(C(=O)N3CCC(CCO)CC3)c2)c1 [Example 4.29] | 1 to 7.94 µM
14 | O=C(NCc1cccc(C(F)(F)F)c1)c1ccnc(-c2cc(N3CCCCC3)ccc2NC(=O)c2cccc(C(=O)N3CCC(CO)CC3)c2)c1 [Example 4.30] | 1 to 7.94 µM
15 | O=C(O)CC1CCN(C(=O)c2cccc(C(=O)Nc3ccc(N4CCCCC4)cc3-c3cc(C(=O)NCc4cccc(C(F)(F)F)c4)ccn3)c2)CC1 [Example 4.31, 2-(1-(3-(4-(Piperidin-1-yl)-2-(4-(3-(trifluoromethyl)benzylcarbamoyl)pyridin-2-yl)phenylcarbamoyl)benzoyl)piperidin-4-yl)acetic acid] | 10 to 31.6 µM
16 | CN(Cc1cccc(C(=O)O)c1)C(=O)c1cccc(C(=O)Nc2ccc(N3CCCCC3)cc2-c2cc(C(=O)NCc3cccc(C(F)(F)F)c3)ccn2)c1 [Example 4.32, 3-((N-Methyl-3-(4-(piperidin-1-yl)-2-(4-(3-(trifluoromethyl)benzylcarbamoyl)pyridin-2-yl)phenylcarbamoyl)benzamido)methyl)benzoic acid] | 1 to 7.94 µM
17 | O=C(O)CCSCc1cccc(C(=O)Nc2ccc(N3CCCCC3)cc2-c2cc(C(=O)CCc3ccccc3)ccn2)c1 [Example 5.1, 3-((3-((2-(4-(3-Phenylpropanoyl)pyridin-2-yl)-4-(piperidin-1-yl)phenyl)carbamoyl)benzyl)thio)propanoic acid] | 1 to 7.94 µM
18 | O=C(O)CCSCc1cccc(C(=O)Nc2ccc(N3CCCCC3)cc2-c2cc(C(=O)c3cccc(C(F)(F)F)c3)ccn2)c1 [Example 5.2, 3-((3-((4-(piperidin-1-yl)-2-(4-(3-(trifluoromethyl)benzoyl)pyridin-2-yl)phenyl)carbamoyl)benzyl)thio)propanoic acid] | 10 to 31.6 µM
19 | O=C(O)CCSCc1cccc(C(=O)Nc2ccc(N3CCCCC3)cc2-c2cc(CNCc3cccc(C(F)(F)F)c3)ccn2)c1 [Example 7] | 10 to 31.6 µM

Continued, values first:

Row | IC50 | Structure (SMILES)
20 | 10 to 31.6 µM | O=C(O)CCSCc1cccc(C(=O)Nc2ccc(N3CCCCC3)cc2-c2cc(C(O)c3cccc(C(F)(F)F)c3)ccn2)c1 (stereo not shown) [Example 6.2, 3-((3-((2-(4-(Hydroxy(3-(trifluoromethyl)phenyl)methyl)pyridin-2-yl)-4-(piperidin-1-yl)phenyl)carbamoyl)benzyl)thio)propanoic acid]
21 | 1 to 7.94 µM | O=C(NCc1cccc(C(F)(F)F)c1)c1ccnc(-c2cc(N3CCCCC3)ccc2NC(=O)c2cccc(CSCCO)c2)c1 [Example 8.2]
22 | 1 to 7.94 µM | O=C(NCc1cccc(C(F)(F)F)c1)c1ccnc(-c2cc(N3CCCCC3)ccc2NC(=O)c2cccc(CSCCCCO)c2)c1 [Example 8.4]
23 | 1 to 7.94 µM | O=C(O)CCCSCc1cccc(C(=O)Nc2ccc(N3CCCCC3)cc2-c2cc(C(=O)NCc3cccc(C(F)(F)F)c3)ccn2)c1 [Example 8.5]
24 | 1 to 7.94 µM | O=C(O)CCOCCOCCOCCOCCSCc1cccc(C(=O)Nc2ccc(N3CCCCC3)cc2-c2cc(C(=O)NCc3cccc(C(F)(F)F)c3)ccn2)c1 [Example 8.7]
25 | < 1 µM | O=C(O)CCc1ccc(SCc2cccc(C(=O)Nc3ccc(N4CCCCC4)cc3-c3cc(C(=O)NCc4cccc(C(F)(F)F)c4)ccn3)c2)cc1 [Example 8.8]
26 | 1 to 7.94 µM | O=C(O)CCCc1ccc(SCc2cccc(C(=O)Nc3ccc(N4CCCCC4)cc3-c3cc(C(=O)NCc4cccc(C(F)(F)F)c4)ccn3)c2)cc1 [Example 8.9]
27 | 10 to 31.6 µM | CC(C)(C)OC(=O)NC(CSCc1cccc(C(=O)Nc2ccc(N3CCCCC3)cc2-c2cc(C(=O)NCc3cccc(C(F)(F)F)c3)ccn2)c1)C(=O)O (stereo not shown) [Example 8.10]
28 | 10 to 31.6 µM | CC(=O)NC(C(=O)O)C(C)(C)SCc1cccc(C(=O)Nc2ccc(N3CCCCC3)cc2-c2cc(C(=O)NCc3cccc(C(F)(F)F)c3)ccn2)c1 (stereo not shown) [Example 8.11]
